Test results as given in ChEMBL document CHEMBL3351614, “Discovery of 1a,2,5,5a-tetrahydro-1H-2,3-diaza-cyclopropa[a]pentalen-4-carboxamides as potent and selective CB2 receptor agonists” (Bioorg Med Chem Lett, 2015).

Assays:
[1] = Cmax in Sprague-Dawley rat at 2 mg/kg, iv and 3 mg/kg, po; format: ADME, organism-based; details: in vivo
[2] = Ratio of drug level in brain to plasma in Sprague-Dawley rat at 3 mg/kg, po after 2 hrs; format: ADME, organism-based; design: dose 3 mg/kg, route oral; details: read-out: BPR
[3] = Drug uptake in Sprague-Dawley rat brain at 3 mg/kg, po after 2 hrs; format: ADME, organism-based; design: dose 3 mg/kg, route oral; details: read-out: Drug uptake
[4] = Volume of distribution at steady state in Sprague-Dawley rat at 2 mg/kg, iv and 3 mg/kg, po; format: ADME, organism-based; details: in vivo, read-out: Vdss
[5] = Oral bioavailability in Sprague-Dawley rat at 3 mg/kg; format: ADME, organism-based; details: in vivo
[6] = AUClast in Sprague-Dawley rat at 2 mg/kg, iv and 3 mg/kg, po; format: ADME, organism-based; details: plasma
Rattus norvegicus = experiment: Toxicity in rat assessed as reduction in core temperature at 0.3 mg/kg, ip; format: organism-based; design: dose 0.3 mg/kg, route intraperitoneal; details: in vivo
[7] = Cmax in Sprague-Dawley rat at 3 mg/kg, po after 0.4 hrs; format: ADME, organism-based; design: dose 3 mg/kg, route oral; details: in vivo

CC(C)(CO)NC(=O)c1nn(-c2ccc(F)cc2F)c2c1C[C@H]1C[C@@H]21
Cmax [1]: 808 ng/mL
Kp at 2 h [2]: 0.356
concentration at 2 h [3]: 623 ng/g
Vd [4]: 0.851 L/kg
bioavailability [5]: 35.9%
AUC(0-t) [6]: 4480 ng·h/mL

CCCCCCC(C)(C)c1ccc([C@@H]2C[C@H](O)CC[C@H]2CCCO)c(O)c1 [CP-55940]
T (Rattus norvegicus): > 2 °C

CC(C)(NC(=O)c1nn(C(C)(C)C)c2c1C[C@H]1C[C@@H]21)c1ccccc1
Cmax [7]: 33 ng/mL
